{
  "source": "patent US10954488B2",
  "about": "“Extract of undifferentiated cells of Mimosa pudica and uses thereof in dermo-cosmetics” (PIERRE FABRE DERMO-COSMETIQUE, priority 2016, dated 2021)",
  "key": {"[1]": {"tested_on": "IL4R (Interleukin 4 receptor)", "test": "In vitro model of induced atopic dermatitis, RT-qPCR: IL4R", "type": "cell-based, human", "conditions": "NHEK + Poly(I:C), IL4, IL13, 24 h; 0.28 mM DEXA; control NHEK = 1", "method": "(§1) The pharmacological model was described by Castex-Rizzi et al. (Br J Dermatol. 2014. 170 Suppl 1:12-8)\n(§2) PCC extracts collected from crushed, dried, standardized Mimosa pudica culture medium W01D15 (with bioconversion) were dissolved/diluted in solution in 40% EtOH at initial concentrations of 75 mg/ml. The compounds were solubilized extemporaneously for viability tests as well as at the appropriate dose in order to measure pharmacological action on the model of induced atopic dermatitis.\n(§3) Normal human epidermal keratinocytes (NHEKs) from Lonza. The cells are amplified under standard culture conditions.\n(§4) NHEK cells are seeded and cultured in Keratinocyte-SFM culture medium. […]\n(§5) Extraction was carried out using RNABle (Eurobio) and the RNeasy Mini Kit from QIAGEN. The total RNAs extracted are assayed on a spectrophotometer (NanoDrop, ND1000, Thermo Scientific) and their qualities analysed on agarose gel.\n(§6) Real-time PCR is a precise, sensitive and rapid method that allows the relative quantification of the rate of expression of a target gene relative to that of a ubiquitously expressed reference gene. This technique makes it possible to quantify messenger RNA. […] Incorporation of a fluorophore (SYBR Green) during the hybridization step of exponential amplification allows quantification and real-time monitoring of the amount of neo-formed amplification product. […]"}, "IL8 (Interleukin 8)": {"tested_on": "IL8 (Interleukin 8)", "test": "In vitro model of induced atopic dermatitis, RT-qPCR: IL8", "type": "cell-based, human", "conditions": "NHEK + Poly(I:C), IL4, IL13, 24 h; 0.28 mM DEXA; control NHEK = 1", "method": "as §1, §2, §3, §4, §5, §6"}, "[2]": {"tested_on": "IFNB1 (Interferon, beta 1, fibroblast)", "test": "In vitro model of induced atopic dermatitis, RT-qPCR: IFNB1", "type": "cell-based, human", "conditions": "NHEK + Poly(I:C), IL4, IL13, 24 h; 0.28 mM DEXA; control NHEK = 1", "method": "as §1, §2, §3, §4, §5, §6"}, "[3]": {"tested_on": "nitrite production (NO synthesis induced by iNOS) in RAW264.7 cells", "test": "Nitrite assay (Griess) in LPS-activated RAW264.7 macrophages", "type": "cell-based", "conditions": "Mus musculus, 1 μM dexamethasone 1 h before 0.2 μg/mL LPS, 24 h, read-out: inhibition of nitrite production (% i)", "excerpt": "(§7) In this example, we compare the anti-inflammatory activity of 2 Mimosa pudica extracts (E11 and E13). Extract E11 comes from ethyl acetate extraction of the dried and crushed Mimosa pudica leaves and extract E13 comes from extraction with the same solvent of the crushed materials derived from Mimosa pudica plant cell culture without bioconversion in an Erlenmeyer flask. The 2 extracts were weighed after evaporation of the solvent to dryness. They were taken up in DMSO. To evaluate and compare the anti-inflammatory activity of the 2 extracts in the same concentrations, we have an in vitro pharmacological test which consists in stimulating murine macrophages, RAW264.7 cells, that express on their surface the TLR4 receptor by the bacterial LPS according to (Kang et al. 2002. J Pharmacol Exp Ther. 302:138-144). Several parameters were studied and compared to a reference anti-inflammatory, dexamethasone: • nitrite production by the Griess technique. […]\nThe level of NO synthesis is evaluated in fresh or frozen (−80° C.) cell supernatants, without affecting the assay. The principle of the assay is based on the Griess (diazotization) reaction which produces a pink azo compound with absorbance at 540 nm.\n(§8) Concentrations are expressed as averages. […]"}, "[4]": {"tested_on": "IL1B (Interleukin 1, beta)", "test": "In vitro model of induced atopic dermatitis, RT-qPCR: IL1B", "type": "cell-based, human", "conditions": "NHEK + Poly(I:C), IL4, IL13, 24 h; 0.28 mM DEXA; control NHEK = 1", "method": "as §1, §2, §3, §4, §5, §6"}, "CX3CL1 (Fractalkine)": {"tested_on": "CX3CL1 (Fractalkine)", "test": "In vitro model of induced atopic dermatitis, RT-qPCR: CX3CL1", "type": "cell-based, human", "conditions": "NHEK + Poly(I:C), IL4, IL13, 24 h; 0.28 mM DEXA; control NHEK = 1", "method": "as §1, §2, §3, §4, §5, §6"}, "IL15 (Interleukin 15)": {"tested_on": "IL15 (Interleukin 15)", "test": "In vitro model of induced atopic dermatitis, RT-qPCR: IL15", "type": "cell-based, human", "conditions": "NHEK + Poly(I:C), IL4, IL13, 24 h; 0.28 mM DEXA; control NHEK = 1", "method": "as §1, §2, §3, §4, §5, §6"}, "[5]": {"tested_on": "CCL13 (Chemokine (C-C motif) ligand 13)", "test": "In vitro model of induced atopic dermatitis, RT-qPCR: CCL13", "type": "cell-based, human", "conditions": "NHEK + Poly(I:C), IL4, IL13, 24 h; 0.28 mM DEXA; control NHEK = 1", "method": "as §1, §2, §3, §4, §5, §6"}, "[6]": {"tested_on": "CCL5 (Chemokine (C-C motif) ligand 5)", "test": "In vitro model of induced atopic dermatitis, RT-qPCR: CCL5", "type": "cell-based, human", "conditions": "NHEK + Poly(I:C), IL4, IL13, 24 h; 0.28 mM DEXA; control NHEK = 1", "method": "as §1, §2, §3, §4, §5, §6"}, "[7]": {"tested_on": "DEFB103A (Defensin, beta 103B)", "test": "In vitro model of induced atopic dermatitis, RT-qPCR: DEFB103A", "type": "cell-based, human", "conditions": "NHEK + Poly(I:C), IL4, IL13, 24 h; 0.28 mM DEXA; control NHEK = 1", "method": "as §1, §2, §3, §4, §5, §6"}, "[8]": {"tested_on": "CCL27 (Chemokine (C-C motif) ligand 27)", "test": "In vitro model of induced atopic dermatitis, RT-qPCR: CCL27", "type": "cell-based, human", "conditions": "NHEK + Poly(I:C), IL4, IL13, 24 h; 0.28 mM DEXA; control NHEK = 1", "method": "as §1, §2, §3, §4, §5, §6"}, "[9]": {"tested_on": "S100A7 (S100 calcium binding protein A7)", "test": "In vitro model of induced atopic dermatitis, RT-qPCR: S100A7", "type": "cell-based, human", "conditions": "NHEK + Poly(I:C), IL4, IL13, 24 h; 0.28 mM DEXA; control NHEK = 1", "method": "as §1, §2, §3, §4, §5, §6"}, "[10]": {"tested_on": "RNASE7 (Ribonuclease, RNase A family, 7)", "test": "In vitro model of induced atopic dermatitis, RT-qPCR: RNASE7", "type": "cell-based, human", "conditions": "NHEK + Poly(I:C), IL4, IL13, 24 h; 0.28 mM DEXA; control NHEK = 1", "method": "as §1, §2, §3, §4, §5, §6"}, "[11]": {"tested_on": "TSLP (Thymic stromal lymphopoietin)", "test": "In vitro model of induced atopic dermatitis, RT-qPCR: TSLP", "type": "cell-based, human", "conditions": "NHEK + Poly(I:C), IL4, IL13, 24 h; 0.28 mM DEXA; control NHEK = 1", "method": "as §1, §2, §3, §4, §5, §6"}, "[12]": {"tested_on": "TLR3 (Toll-like receptor 3)", "test": "In vitro model of induced atopic dermatitis, RT-qPCR: TLR3", "type": "cell-based, human", "conditions": "NHEK + Poly(I:C), IL4, IL13, 24 h; 0.28 mM DEXA; control NHEK = 1", "method": "as §1, §2, §3, §4, §5, §6"}, "[13]": {"tested_on": "CCL20 (Chemokine (C-C motif) ligand 20)", "test": "In vitro model of induced atopic dermatitis, RT-qPCR: CCL20", "type": "cell-based, human", "conditions": "NHEK + Poly(I:C), IL4, IL13, 24 h; 0.28 mM DEXA; control NHEK = 1", "method": "as §1, §2, §3, §4, §5, §6"}, "[14]": {"tested_on": "TNF-alpha production in RAW264.7 cells", "test": "TNF-alpha Luminex assay in LPS-activated RAW264.7 macrophages", "type": "cell-based", "conditions": "Mus musculus, 1 μM dexamethasone 1 h before 0.2 μg/mL LPS, 24 h, read-out: inhibition of TNF-alpha production (% i)", "excerpt": "as §7, with “302:138-144).” for “302:138-144). Several parameters were studied and compared to a reference anti-inflammatory, dexamethasone: • nitrite production by the Griess technique.”\nSimultaneous assay of TNF-alpha in the cell supernatants was performed using the Luminex xMAP (multi-analyte profiling) technology which is based on the principles of flow cytometry and ELISA in a 96-well microplate. The microbeads used as substrate incorporate two fluorochromes in a precise ratio, which gives them an identifying colour code (different fluorescences). […] The second laser, green, (λ=532 nm) excites the reporter fluorochrome attached to the specific detection antibody in order to quantify the cytokine. […]\nas §8"}, "[15]": {"tested_on": "IL1A (Interleukin 1, alpha)", "test": "In vitro model of induced atopic dermatitis, RT-qPCR: IL1A", "type": "cell-based, human", "conditions": "NHEK + Poly(I:C), IL4, IL13, 24 h; 0.28 mM DEXA; control NHEK = 1", "method": "as §1, §2, §3, §4, §5, §6"}, "[16]": {"tested_on": "CCL11 (Chemokine (C-C motif) ligand 11)", "test": "In vitro model of induced atopic dermatitis, RT-qPCR: CCL11", "type": "cell-based, human", "conditions": "NHEK + Poly(I:C), IL4, IL13, 24 h; 0.28 mM DEXA; control NHEK = 1", "method": "as §1, §2, §3, §4, §5, §6"}, "[17]": {"tested_on": "IL-6 secretion in RAW264.7 cells", "test": "IL6 assay by ELISA in LPS-activated RAW264.7 macrophages", "type": "cell-based", "conditions": "Mus musculus, 1 μM dexamethasone 1 h before 0.2 μg/mL LPS, 24 h, read-out: inhibition of IL-6 secretion (% i)", "excerpt": "In this example, we compare the anti-inflammatory activity of 2 Mimosa pudica extracts (E11 and E13). Extract E11 comes from ethyl acetate extraction of the dried and crushed Mimosa pudica leaves and extract E13 comes from extraction with the same solvent of the crushed materials derived from Mimosa pudica plant cell culture without bioconversion in an Erlenmeyer flask. The 2 extracts were weighed after evaporation of the solvent to dryness. They were taken up in DMSO. To evaluate and compare the anti-inflammatory activity of the 2 extracts in the same concentrations, we have an in vitro pharmacological test which consists in stimulating murine macrophages, RAW264.7 cells, that express on their surface the TLR4 receptor by the bacterial LPS according to (Kang et al. 2002. J Pharmacol Exp Ther. 302:138-144). Several parameters were studied and compared to a reference anti-inflammatory, dexamethasone: • nitrite production by the Griess technique. The nitrite level reflects the level of NO synthesis induced by inducible […] (iNOS). • cytokine secretion: interleukin-6 by ELISA • TNF-alpha production by multiplex assay Cell Culture\nRAW264.7 cells are mouse macrophages in lineage. […]\nas §8"}},
  "data": [
    {"smiles": "C[C@@H]1C[C@H]2[C@@H]3CCC4=CC(=O)C=C[C@]4(C)[C@@]3(F)[C@@H](O)C[C@]2(C)[C@@]1(O)C(=O)CO", "note": "[dexamethasone]", "values": [
      {"measurement": "relative expression (RQ) of IL4R", "setting": "[1]", "result": 7.03},
      {"measurement": "relative expression (RQ) of IL8", "setting": "IL8 (Interleukin 8)", "result": 7.89},
      {"measurement": "relative expression (RQ) of IFNB1", "setting": "[2]", "result": 1.90},
      {"measurement": "inhibition at 1 µM", "setting": "[3]", "result": 35, "unit": "%"},
      {"measurement": "relative expression (RQ) of IL1B", "setting": "[4]", "result": 2.63},
      {"measurement": "relative expression (RQ) of CX3CL1", "setting": "CX3CL1 (Fractalkine)", "result": 36.63},
      {"measurement": "relative expression (RQ) of IL15", "setting": "IL15 (Interleukin 15)", "result": 29.16},
      {"measurement": "relative expression (RQ) of CCL13", "setting": "[5]", "result": 1.98},
      {"measurement": "relative expression (RQ) of CCL5", "setting": "[6]", "result": 49.90},
      {"measurement": "relative expression (RQ) of DEFB103A", "setting": "[7]", "result": 107.56},
      {"measurement": "relative expression (RQ) of CCL27", "setting": "[8]", "result": 0.71},
      {"measurement": "relative expression (RQ) of S100A7", "setting": "[9]", "result": 79.12},
      {"measurement": "relative expression (RQ) of RNASE7", "setting": "[10]", "result": 43.23},
      {"measurement": "relative expression (RQ) of TSLP", "setting": "[11]", "result": 1.80},
      {"measurement": "relative expression (RQ) of TLR3", "setting": "[12]", "result": 2.79},
      {"measurement": "relative expression (RQ) of CCL20", "setting": "[13]", "result": 28.94},
      {"measurement": "inhibition at 1 µM", "setting": "[14]", "result": 16, "unit": "%"},
      {"measurement": "relative expression (RQ) of IL1A", "setting": "[15]", "result": 8.54},
      {"measurement": "relative expression (RQ) of CCL11", "setting": "[16]", "result": 1.14},
      {"measurement": "inhibition at 1 µM", "setting": "[17]", "result": 38, "unit": "%"}
    ]}
  ]
}
